Source: patent publication US20170334899A1, “AMINO-SUBSTITUTED ISOTHIAZOLES” (Bayer Pharma Aktiengesellschaft, priority 2014, published 2017)

Columns and labels:
[1] = tested on: human cervical tumor cell line HeLa (ATCC CCL-2); assay: SAC-Formation - Nocodazole-Induced Assay; format: cell-based; conditions: Homo sapiens, HeLa, 24 h, HeLa cells, nocodazole 0.1 μg/ml together with test compound, decrease of mitotic cells (phospho-histone H3 Ser10)
Method in brief: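 Loss of phospho-histone H3 Ser10-positive cells, counted against Hoechst-stained nuclei by high-content imaging, marked mitotic breakthrough. Compounds (0.005–20 μM, 0.5% DMSO) were co-dosed with 0.1 μg/ml nocodazole onto HeLa cells for 24 h at 37 °C. Curves were fitted with a four-parameter Hill equation.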

[2] = target: T1, catalytic domain of human Bub1 (amino acids 704-1085) (Homo sapiens, UniProt O43683); assay: Bub1 kinase assay (TR-FRET); format: biochemical; conditions: 10 μM ATP, avg, read-out: Bub1 avg (IC50 [mol/l])
T1 construct: catalytic domain of human Bub1 (amino acids 704-1085); His6 (N); made in house; host or cells: insect cells (Hi5)
Method in brief: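 Readout is the 665/620 nm TR-FRET ratio from anti-phosphoserine antibody, Eu-labelled anti-mouse IgG and streptavidin-XL665, scaled between no-enzyme and uninhibited controls. Reaction: 1 μM biotinylated peptide, 10 μM ATP, 60 min, 22 °C, after 15 min compound preincubation with His6-Bub1 (704-1085, insect-expressed, ~200 ng/ml).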

T1 sequence (O43683 704-1085): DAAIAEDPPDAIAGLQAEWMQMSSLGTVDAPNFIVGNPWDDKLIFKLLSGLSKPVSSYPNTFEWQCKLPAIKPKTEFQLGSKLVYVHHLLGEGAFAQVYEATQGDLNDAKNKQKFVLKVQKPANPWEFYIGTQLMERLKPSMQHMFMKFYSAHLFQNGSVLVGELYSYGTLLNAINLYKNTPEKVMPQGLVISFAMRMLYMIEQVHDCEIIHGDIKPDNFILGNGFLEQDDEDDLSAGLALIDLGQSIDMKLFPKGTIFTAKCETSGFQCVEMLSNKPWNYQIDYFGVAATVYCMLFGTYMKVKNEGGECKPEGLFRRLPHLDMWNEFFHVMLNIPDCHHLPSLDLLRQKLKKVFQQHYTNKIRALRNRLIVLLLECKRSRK

| SMILES | IC50 [1] | IC50 [2] |
| --- | --- | --- |
| Cc1nsc(Nc2cnc(C(F)(F)F)cn2)c1C(=O)Nc1ccc(O[C@H]2CCN(CC(F)(F)F)C2)nc1 [Example 383, 3-methyl-N-(6-{[(3S)-1-(2,2,2-trifluoroethyl)pyrrolidin-3-yl]oxy}pyridin-3-yl)-5-{[5-(trifluoromethyl)pyrazin-2-yl]amino}-1,2-thiazole-4-carboxamide] | 0.027 µM | ≥ 20 µM |
| Cc1nsc(Nc2cnc(C(F)(F)F)cn2)c1C(=O)Nc1ccc(F)c(OC[C@@H]2CCN(CCC(F)(F)F)C2)c1 [Example 340, N-(4-fluoro-3-{[(3R)-1-(3,3,3-trifluoropropyl)pyrrolidin-3-yl]methoxy}phenyl)-3-methyl-5-{[5-(trifluoromethyl)pyrazin-2-yl]amino}-1,2-thiazole-4-carboxamide] | 0.033 µM | > 20 µM |
| Cc1nsc(Nc2cnc(C(F)(F)F)cn2)c1C(=O)Nc1ccc(N2CCN(CC(F)F)CC2)cn1 [Example 372, N-{5-[4-(2,2-difluoroethyl)piperazin-1-yl]pyridin-2-yl}-3-methyl-5-{[5-(trifluoromethyl)pyrazin-2-yl]amino}-1,2-thiazole-4-carboxamide] | 0.12 µM | > 20 µM |
| Cc1nsc(Nc2cnc(C(F)(F)F)cn2)c1C(=O)Nc1ccc(O[C@@H]2CCCN(CCC(F)(F)F)C2)nc1 [Example 387, 3-methyl-5-{[5-(trifluoromethyl)pyrazin-2-yl]amino}-N-(6-{[(3R)-1-(3,3,3-trifluoropropyl)piperidin-3-yl]oxy}pyridin-3-yl)-1,2-thiazole-4-carboxamide] | 0.07 µM | > 20 µM |
| Cc1nsc(Nc2cnc(C(F)(F)F)cn2)c1C(=O)Nc1ccc(OCC2CCCN(CCF)C2)nc1 (stereo not shown) [Example 325, N-(6-{[1-(2-fluoroethyl)piperidin-3-yl]methoxy}pyridin-3-yl)-3-methyl-5-{[5-(trifluoromethyl)pyrazin-2-yl]amino}-1,2-thiazole-4-carboxamide] | 0.11 µM | ≥ 20 µM |
| Cc1nsc(Nc2cnc(C(F)(F)F)cn2)c1C(=O)Nc1ccc(OCC2CCN(CCC(F)(F)F)CC2)nc1 [Example 347, 3-methyl-5-{[5-(trifluoromethyl)pyrazin-2-yl]amino}-N-(6-{[1-(3,3,3-trifluoropropyl)piperidin-4-yl]methoxy}pyridin-3-yl)-1,2-thiazole-4-carboxamide] | 0.04 µM | ≥ 20 µM |
| Cc1nsc(Nc2cnc(C(F)(F)F)cn2)c1C(=O)Nc1ccc(C2CCN(CC(F)(F)F)CC2)nc1 [Example 358, 3-methyl-N-{6-[1-(2,2,2-trifluoroethyl)piperidin-4-yl]pyridin-3-yl}-5-{[5-(trifluoromethyl)pyrazin-2-yl]amino}-1,2-thiazole-4-carboxamide] | 0.03 µM | > 20 µM |
| Cc1nsc(Nc2cnc3ccccc3n2)c1C(=O)Nc1ccc(OC2CCCN(C(=O)OC(C)(C)C)C2)nc1 (stereo not shown) [Example 31, tert-Butyl 3-{[5-({[3-methyl-5-(quinoxalin-2-ylamino)-1,2-thiazol-4-yl]carbonyl}-amino)pyridin-2-yl]oxy}piperidine-1-carboxylate] | 0.22 µM | ≥ 20 µM |
| Cc1nsc(Nc2cnc(C(F)(F)F)cn2)c1C(=O)Nc1ccc(OCC2CCCN(CC(F)(F)F)C2)nc1 (stereo not shown) [Example 326, 3-methyl-N-(6-{[1-(2,2,2-trifluoroethyl)piperidin-3-yl]methoxy}pyridin-3-yl)-5-{[5-(trifluoromethyl)pyrazin-2-yl]amino}-1,2-thiazole-4-carboxamide] | 0.0056 µM | ≥ 20 µM |
| Cc1nsc(Nc2cnc3ccccc3n2)c1C(=O)Nc1ccc(OC2CCCNC2)nc1 (stereo not shown) [Example 32, 3-Methyl-N-[6-(piperidin-3-yloxy)pyridin-3-yl]-5-(quinoxalin-2-ylamino)-1,2-thiazole-4-carboxannide] | 4 µM | ≥ 20 µM |
| Cc1nsc(Nc2cnc(C(F)(F)F)cn2)c1C(=O)Nc1ccc(OC[C@@H]2CCCN(CCC(F)(F)F)C2)nc1 [Example 377, 3-methyl-5-{[5-(trifluoromethyl)pyrazin-2-yl]amino}-N-(6-{[(3R)-1-(3,3,3-trifluoropropyl)piperidin-3-yl]methoxy}pyridin-3-yl)-1,2-thiazole-4-carboxamide] | 0.04 µM | > 20 µM |
| Cc1nsc(Nc2cnc(C(F)(F)F)cn2)c1C(=O)Nc1ccc(OCC2CCCN(CCC(F)(F)F)C2)nc1 (stereo not shown) [Example 328, 3-methyl-5-{[5-(trifluoromethyl)pyrazin-2-yl]amino}-N-(6-{[1-(3,3,3-trifluoropropyl)piperidin-3-yl]methoxy}pyridin-3-yl)-1,2-thiazole-4-carboxamide] | 0.0018 µM | ≥ 20 µM |
| Cc1nsc(Nc2cnc(C(F)(F)F)cn2)c1C(=O)Nc1ccc(O[C@@H]2CCN(CCC(F)(F)F)C[C@H]2F)nc1 [Example 368, N-(6-{[(3R,4R)-3-fluoro-1-(3,3,3-trifluoropropyl)piperidin-4-yl]oxy}pyridin-3-yl)-3-methyl-5-{[5-(trifluoromethyl)pyrazin-2-yl]amino}-1,2-thiazole-4-carboxamide] | 0.016 µM | > 20 µM |
| Cc1nsc(Nc2cnc(C(F)(F)F)cn2)c1C(=O)Nc1ccc(O[C@@H]2CCN(CC(F)(F)F)C[C@H]2F)nc1 [Example 367, N-(6-{[(3R,4R)-3-fluoro-1-(2,2,2-trifluoroethyl)piperidin-4-yl]oxy}pyridin-3-yl)-3-methyl-5-{[5-(trifluoromethyl)pyrazin-2-yl]amino}-1,2-thiazole-4-carboxamide] | 0.027 µM | > 20 µM |
| Cc1nsc(Nc2cnc(C(F)(F)F)cn2)c1C(=O)Nc1ccc(OCC2CCN(CCF)CC2)nc1 [Example 344, N-(6-{[1-(2-fluoroethyl)piperidin-4-yl]methoxy}pyridin-3-yl)-3-methyl-5-{[5-(trifluoromethyl)pyrazin-2-yl]amino}-1,2-thiazole-4-carboxamide] | 0.29 µM | ≥ 20 µM |
| Cc1nsc(Nc2cnc(C(F)(F)F)cn2)c1C(=O)Nc1ccc(O[C@H]2CCN(CCC(F)(F)F)C2)nc1 [Example 384, 3-methyl-5-{[5-(trifluoromethyl)pyrazin-2-yl]amino}-N-(6-{[(3S)-1-(3,3,3-trifluoropropyl)pyrrolidin-3-yl]oxy}pyridin-3-yl)-1,2-thiazole-4-carboxamide] | 0.062 µM | ≥ 20 µM |
| Cc1nsc(Nc2cnc(C(F)(F)F)cn2)c1C(=O)Nc1ccc(O[C@@H]2CCN(CCC(F)(F)F)C2)nc1 [Example 381, 3-methyl-5-{[5-(trifluoromethyl)pyrazin-2-yl]amino}-N-(6-{[(3R)-1-(3,3,3-trifluoropropyl)pyrrolidin-3-yl]oxy}pyridin-3-yl)-1,2-thiazole-4-carboxamide] | 0.047 µM | > 20 µM |
| CCN1CC[C@@H](Oc2ccc(NC(=O)c3c(C)nsc3Nc3cnc(C(F)(F)F)cn3)cn2)[C@H](F)C1 [Example 369, N-(6-{[(3R,4R)-1-ethyl-3-fluoropiperidin-4-yl]oxy}pyridin-3-yl)-3-methyl-5-{[5-(trifluoromethyl)pyrazin-2-yl]amino}-1,2-thiazole-4-carboxamide] | 0.058 µM | > 20 µM |
| Cc1nsc(Nc2cnc(C(F)(F)F)cn2)c1C(=O)Nc1ccc(OCC2CCN(CC(F)(F)F)CC2(F)F)nc1 (stereo not shown) [Example 392, N-(6-{[3,3-difluoro-1-(2,2,2-trifluoroethyl)piperidin-4-yl]methoxy}pyridin-3-yl)-3-methyl-5-{[5-(trifluoromethyl)pyrazin-2-yl]amino}-1,2-thiazole-4-carboxamide] | 0.074 µM | > 20 µM |
| Cc1nsc(Nc2cnc(C(F)(F)F)cn2)c1C(=O)Nc1ccc(F)c(OC[C@@H]2CCCN(CC(F)(F)F)C2)c1 [Example 342, N-(4-fluoro-3-{[(3R)-1-(2,2,2-trifluoroethyl)piperidin-3-yl]methoxy}phenyl)-3-methyl-5-{[5-(trifluoromethyl)pyrazin-2-yl]amino}-1,2-thiazole-4-carboxamide] | 0.072 µM | > 20 µM |
| CCN1CCC(COc2ccc(NC(=O)c3c(C)nsc3Nc3cnc(C(F)(F)F)cn3)cn2)C(F)(F)C1 (stereo not shown) [Example 393, N-{6-[(1-ethyl-3,3-difluoropiperidin-4-yl)methoxy]pyridin-3-yl}-3-methyl-5-{[5-(trifluoromethyl)pyrazin-2-yl]amino}-1,2-thiazole-4-carboxamide] | 0.014 µM | > 20 µM |
| Cc1nsc(Nc2cnc(C(F)(F)F)cn2)c1C(=O)Nc1ccc(OC[C@@H]2CCCN(CC(F)(F)F)C2)nc1 [Example 376, 3-methyl-N-(6-{[(3R)-1-(2,2,2-trifluoroethyl)piperidin-3-yl]methoxy}pyridin-3-yl)-5-{[5-(trifluoromethyl)pyrazin-2-yl]amino}-1,2-thiazole-4-carboxamide] | 0.05 µM | > 20 µM |
| Cc1nsc(Nc2cnc(C(F)(F)F)cn2)c1C(=O)Nc1ccc(O[C@H]2CCN(CCC(F)(F)F)C[C@@H]2F)nc1 [Example 364, N-(6-{[(3S,4S)-3-fluoro-1-(3,3,3-trifluoropropyl)piperidin-4-yl]oxy}pyridin-3-yl)-3-methyl-5-{[5-(trifluoromethyl)pyrazin-2-yl]amino}-1,2-thiazole-4-carboxamide] | 0.012 µM | > 20 µM |
